Results published in PubChem BioAssay AID248 (DTP/NCI, 2004).
Where “and” joins values, the source holds several entries; their conditions need not be identical. Identical values can stand only once. Toxic doses and inconclusive results are not listed. Cut-off read from the data, not from the text of the source: active = T/C of 150% or more; inactive = T/C below 125%.

System: L1210 leukemia ip in BDF1 mice, survival T/C
Experiment: NCI In Vivo Anticancer Drug Screen. Data for tumor model L1210 Leukemia (intraperitoneal) in B6D2F1 (BDF1) mice
Conditions: endpoint: mean survival time, higher = longer survival
Method in brief: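 Antitumor effect is assessed in tumor-bearing animals. Survival in the compound arm is compared with a vehicle-dosed control arm and expressed as their quotient.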

[1] = dose: 100.0 mg/kg/injection, schedule: Q04DX003 (ip), vehicle: Klucel (hydroxypropylcellulose) (HPC)
[2] = dose: 200.0 mg/kg/injection, schedule: Q04DX003 (ip), vehicle: Klucel (hydroxypropylcellulose) (HPC)
[3] = dose: 50.0 mg/kg/injection, schedule: Q01DX001 (ip), vehicle: saline
[4] = dose: 100.0 mg/kg/injection, schedule: Q01DX001 (ip), vehicle: saline
[5] = dose: 200.0 mg/kg/injection, schedule: Q01DX001 (ip), vehicle: saline
[6] = dose: 400.0 mg/kg/injection, schedule: Q01DX001 (ip), vehicle: saline
[7] = dose: 50.0 mg/kg/injection, schedule: Q01DX009 (ip), vehicle: saline with Tween-80
[8] = dose: 100.0 mg/kg/injection, schedule: Q01DX009 (ip), vehicle: saline with Tween-80
[9] = dose: 200.0 mg/kg/injection, schedule: Q01DX009 (ip), vehicle: saline with Tween-80
[10] = dose: 400.0 mg/kg/injection, schedule: Q04DX003 (ip), vehicle: Klucel (hydroxypropylcellulose) (HPC)
[11] = dose: 100.0 mg/kg/injection, schedule: Q04DX002 (ip), vehicle: saline
[12] = dose: 200.0 mg/kg/injection, schedule: Q04DX002 (ip), vehicle: saline
[13] = dose: 400.0 mg/kg/injection, schedule: Q04DX002 (ip), vehicle: saline
[14] = dose: 100.0 mg/kg/injection, schedule: Q04DX003 (ip), vehicle: saline
[15] = dose: 200.0 mg/kg/injection, schedule: Q04DX003 (ip), vehicle: saline

Measured: T/C

O=C(NCCc1ccccc1)Nc1ccccc1
inactive: dose: 75.0 mg/kg/injection, schedule: Q01DX009 (ip), vehicle: saline with Tween-80 100 % of control | dose: 75.0 mg/kg/injection, schedule: Q04DX003 (ip), vehicle: saline with Tween-80 92 % of control | dose: 150.0 mg/kg/injection, schedule: Q01DX009 (ip), vehicle: saline with Tween-80 90 % of control | dose: 150.0 mg/kg/injection, schedule: Q04DX003 (ip), vehicle: saline with Tween-80 91 % of control | dose: 300.0 mg/kg/injection, schedule: Q01DX009 (ip), vehicle: saline with Tween-80 88 % of control | dose: 300.0 mg/kg/injection, schedule: Q04DX003 (ip), vehicle: saline with Tween-80 89 % of control

COc1ccc(COC(=O)Nc2cccc(Cl)c2)cc1OC
inactive: dose: 100.0 mg/kg/injection, schedule: Q01DX009 (ip), vehicle: Klucel (hydroxypropylcellulose) (HPC) 96 % of control | dose: 200.0 mg/kg/injection, schedule: Q01DX009 (ip), vehicle: Klucel (hydroxypropylcellulose) (HPC) 102 % of control | dose: 400.0 mg/kg/injection, schedule: Q01DX009 (ip), vehicle: Klucel (hydroxypropylcellulose) (HPC) 103 % of control

N=C(N)Sc1n[nH]c(=O)[nH]c1=O
inactive: dose: 75.0 mg/kg/injection, schedule: Q01DX001 (ip), vehicle: alcohol 100 % of control | dose: 150.0 mg/kg/injection, schedule: Q01DX001 (ip), vehicle: alcohol 90 % of control

COc1ccc2c(C(=O)O)c(C(=O)c3ccccc3)ccc2c1OC
inactive: dose: 100.0 mg/kg/injection, schedule: Q01DX001 (ip), vehicle: gum acacia 98 % of control | dose: 200.0 mg/kg/injection, schedule: Q01DX001 (ip), vehicle: gum acacia 98 % of control | dose: 400.0 mg/kg/injection, schedule: Q01DX001 (ip), vehicle: gum acacia 94 % of control

O=C(NC(=S)Nc1ccccc1)c1cccc(Cl)c1
inactive: dose: 75.0 mg/kg/injection, schedule: Q01DX001 (ip), vehicle: carboxymethylcellulose (CMC) 95 % of control | dose: 150.0 mg/kg/injection, schedule: Q01DX001 (ip), vehicle: carboxymethylcellulose (CMC) 96 % of control

CC(C)N1C(=O)c2cccc3c(Br)ccc(c23)C1=O
inactive: [1] 96 % of control | [2] 97 % of control

Cc1ccccc1NP1(=O)OCCCN1Cc1ccc(Cl)cc1 (stereo not drawn)
inactive: [3] 106 % of control | [4] 102 % of control | [5] 106 % of control | [6] 100 % of control

O=C(Nc1ccccc1)Nc1ccccc1
inactive: [7] 96 % of control | [4] 97 % of control | [8] 91 % of control | [1] 90 % of control | [5] 92 % of control | [9] 103 % of control | [2] 95 % of control | [6] 94 % of control | [10] 96 % of control

O=C(COc1ccc(Cl)c(Cl)c1)Nc1ccc[n+](Cc2cccc(S(=O)(=O)F)c2)c1
inactive: dose: 100.0 mg/kg/injection, schedule: Q01DX001 (ip), vehicle: Klucel (hydroxypropylcellulose) (HPC) 96 % of control | dose: 200.0 mg/kg/injection, schedule: Q01DX001 (ip), vehicle: Klucel (hydroxypropylcellulose) (HPC) 97 % of control

CCCOCCOCCOC(C)Oc1ccc(C(=O)OC)cc1 (stereo not drawn)
inactive: [11] 101 % of control | [12] 101 % of control | [13] 99 % of control

COc1ccc(C(=O)N/N=C/c2cccc([N+](=O)[O-])c2)cc1
inactive: dose: 100.0 mg/kg/injection, schedule: Q01DX001 (ip), vehicle: carboxymethylcellulose (CMC) 98 % of control | dose: 100.0 mg/kg/injection, schedule: Q01DX009 (ip), vehicle: carboxymethylcellulose (CMC) 90 % of control and 92 % of control | dose: 100.0 mg/kg/injection, schedule: Q04DX002 (ip), vehicle: other 98 % of control | dose: 100.0 mg/kg/injection, schedule: Q04DX003 (ip), vehicle: carboxymethylcellulose (CMC) 98 % of control | dose: 200.0 mg/kg/injection, schedule: Q01DX001 (ip), vehicle: carboxymethylcellulose (CMC) 97 % of control | dose: 200.0 mg/kg/injection, schedule: Q01DX009 (ip), vehicle: carboxymethylcellulose (CMC) 101 % of control and 90 % of control | dose: 200.0 mg/kg/injection, schedule: Q04DX002 (ip), vehicle: other 95 % of control | dose: 200.0 mg/kg/injection, schedule: Q04DX003 (ip), vehicle: carboxymethylcellulose (CMC) 98 % of control | dose: 400.0 mg/kg/injection, schedule: Q01DX001 (ip), vehicle: carboxymethylcellulose (CMC) 93 % of control | dose: 400.0 mg/kg/injection, schedule: Q01DX009 (ip), vehicle: carboxymethylcellulose (CMC) 95 % of control and 96 % of control | dose: 400.0 mg/kg/injection, schedule: Q04DX002 (ip), vehicle: other 95 % of control | dose: 400.0 mg/kg/injection, schedule: Q04DX003 (ip), vehicle: carboxymethylcellulose (CMC) 102 % of control

O=P(O)(CO)CO
inactive: [14] 109 % of control | [15] 95 % of control

CC1(C)OCC(C(O)C(O)C2COC(C)(C)O2)O1 (stereo not drawn)
inactive: [11] 96 % of control | [12] 104 % of control | [13] 101 % of control

CC(C)C(C#Cc1ccccc1)N1CCCCC1 (stereo not drawn)
inactive: dose: 100.0 mg/kg/injection, schedule: Q04DX002 (ip), vehicle: saline with Tween-80 103 % of control | dose: 200.0 mg/kg/injection, schedule: Q04DX002 (ip), vehicle: saline with Tween-80 87 % of control | dose: 400.0 mg/kg/injection, schedule: Q04DX002 (ip), vehicle: saline with Tween-80 97 % of control

Cc1cc(C)c(C(=O)O)cc1C(=O)O
inactive: [7] 100 % of control | [8] 100 % of control | [9] 106 % of control

CC(=O)Nc1cc2ccc3ccccc3c2c2ccccc12
inactive: dose: 75.0 mg/kg/injection, schedule: Q04DX002 (ip), vehicle: Klucel (hydroxypropylcellulose) (HPC) 102 % of control | dose: 150.0 mg/kg/injection, schedule: Q04DX002 (ip), vehicle: Klucel (hydroxypropylcellulose) (HPC) 97 % of control | dose: 300.0 mg/kg/injection, schedule: Q04DX002 (ip), vehicle: Klucel (hydroxypropylcellulose) (HPC) 97 % of control

O=C(Nc1ccc(Br)c2c(NC(=O)c3ccccc3)ccc(Br)c12)c1ccccc1
inactive: [3] 110 % of control | [4] 101 % of control | [5] 95 % of control | [6] 98 % of control

O=C(COc1ccccc1)Nc1ccc[n+](Cc2ccc(S(=O)(=O)F)cc2)c1
inactive: [14] 95 % of control and 118 % of control | [15] 101 % of control and 118 % of control | dose: 400.0 mg/kg/injection, schedule: Q04DX003 (ip), vehicle: saline 95 % of control and 114 % of control

O=C1C2C(=C3CCCCC3)C=CC2C1(c1ccccc1)c1ccccc1 (stereo not drawn)
inactive: [1] 101 % of control | [2] 95 % of control | [10] 94 % of control

N=C(N)SC1c2ccccc2-c2ccccc21
inactive: dose: 10.0 mg/kg/injection, schedule: Q04DX002 (ip), vehicle: Klucel (hydroxypropylcellulose) (HPC) 97 % of control | dose: 20.0 mg/kg/injection, schedule: Q04DX002 (ip), vehicle: Klucel (hydroxypropylcellulose) (HPC) 101 % of control | dose: 40.0 mg/kg/injection, schedule: Q04DX002 (ip), vehicle: Klucel (hydroxypropylcellulose) (HPC) 101 % of control

CCOC(=O)CCc1c(C(=O)OCC)[nH]c2ccc(Cl)cc12
inactive: dose: 100.0 mg/kg/injection, schedule: Q04DX002 (ip), vehicle: Klucel (hydroxypropylcellulose) (HPC) 96 % of control | dose: 200.0 mg/kg/injection, schedule: Q04DX002 (ip), vehicle: Klucel (hydroxypropylcellulose) (HPC) 100 % of control | dose: 400.0 mg/kg/injection, schedule: Q04DX002 (ip), vehicle: Klucel (hydroxypropylcellulose) (HPC) 96 % of control
